US11266655B2, “Methods and compositions for treating urea cycle disorders” (Camp4 Therapeutics Corporation, priority 2019, dated 2022)
“And” between values parts separate entries of the source, which are not always exact repeats. Equal entries are not always repeated. Structures can show the parent of a compound that is named as a salt. Where two headings read alike, the source gives them in different places.

How the values were obtained:
NAGS = type: cell-based, human
ASS1 = assay: RNA-seq of compound-treated primary human hepatocytes, ASS1 expression; type: cell-based
SLC25A15 = assay: RNA-seq of compound-treated primary human hepatocytes, SLC25A15 expression; type: cell-based
SLC25A13 = assay: RNA-seq of compound-treated primary human hepatocytes, SLC25A13 expression; type: cell-based; details: primary human hepatocytes, triplicate (Table 23, FIG. 15)
ARG1 = assay: RNA-seq of compound-treated primary human hepatocytes, ARG1 expression; type: cell-based
CPS1 [1] = assay: RNA-seq of compound-treated primary human hepatocytes, CPS1 expression; type: cell-based; details: for Relative CPS1 level vs Untreated (±Standard Deviation): primary human hepatocytes, triplicate (Table 19, FIG. 11)
OTC [2] = assay: HSP90 or HSP70 inhibitors in primary human hepatocytes, OTC mRNA; type: cell-based; details: hepatocytes from Donor B, normalized to B2M
Experimental: (§1) Additional small molecules that inhibit HSP90 or HSP70 were tested in primary human hepatocytes as described in Example 2. HSP90 or HSP70 inhibitors were tested in triplicate at 0.3 μM and 3 μM. The results are shown as the fold change (mRNA FC) in the mRNA levels of OTC and CPS1 genes after treatment compared to an untreated control (DMSO) and the standard deviation (SD). In addition, a dose titration experiment was performed with selected HSP90 inhibitors. Hepatocytes were incubated with increasing concentrations of HSP90 inhibitors and the changes in OTC and CPS1 expression quantified as previously described.
(§2) HSP90 and HSP70 inhibitors were compared to confirm the role of HSP90 in modulating OTC and CPS1 expression. Hepatocytes from Donor B were incubated with various HSP90 inhibitors or an HSP70 inhibitor, Pifithrin-μ, and then harvested for mRNA quantification. OTC and CPS1 mRNA levels were normalized to B2M.

CPS1 [3] = assay: HSP90 or HSP70 inhibitors in primary human hepatocytes, CPS1 mRNA; type: cell-based; details: hepatocytes from Donor B, normalized to B2M
Experimental: as §1, §2

OTC [4] = assay: RNA-seq of compound-treated primary human hepatocytes, OTC expression; type: cell-based
urea cycle genes = assay: RNA-seq of primary human hepatocytes, compounds that modulate multiple urea cycle-related genes; type: cell-based; details: primary human hepatocytes, RNA-seq
CPS1 [5] = assay: JAK inhibitors at 0.3 and 3 μM in primary human hepatocytes, CPS1 mRNA fold change; type: cell-based; details: fold change vs DMSO
Experimental: (§3) Additional small molecules that inhibit JAK1, JAK2, JAK3, or a combination of the JAK proteins were tested in primary human hepatocytes as described in Example 2. JAK inhibitors were tested in triplicate at 0.3 μM and 3 μM. The results are shown as the fold change (mRNA FC) in the mRNA levels of OTC and CPS1 genes after treatment compared to an untreated control (DMSO) and the standard deviation (SD).

OTC [6] = assay: JAK inhibitors at 0.3 and 3 μM in primary human hepatocytes, OTC mRNA fold change; type: cell-based; details: fold change vs DMSO
Experimental: as §3

OTC [7] = assay: JAK1 inhibitor dose titration in hepatocytes of donors A and B, OTC mRNA normalized to B2M; type: cell-based, human; details: normalized to B2M
Experimental: (§4) Next, two JAK1 inhibitors were tested at increasing concentrations in a dose titration assy. Hepatocytes from two different donors (A and B) were incubated with the various concentrations of upadacitinib or oclacitinib maleate and harvested for mRNA analysis. OTC and CPS1 mRNA were normalized to house keeping gene B2M gene expression.

CPS1 [8] = assay: JAK1 inhibitor dose titration in hepatocytes of donors A and B, CPS1 mRNA normalized to B2M; type: cell-based, human; details: normalized to B2M
Experimental: as §4

[9] = 10 μM, primary human hepatocytes, triplicate (Table 21, FIG. 13)
[10] = 10 μM, primary human hepatocytes, triplicate (Table 15, FIG. 7)
[11] = 3 μM, primary human hepatocytes, triplicate (Table 24, FIG. 16A-B)
[12] = 10 μM, primary human hepatocytes, triplicate (Table 24, FIG. 16A-B)
[13] = 1 μM, primary human hepatocytes, triplicate (Table 17, FIG. 9)
[14] = 3 μM, primary human hepatocytes, triplicate (Table 17, FIG. 9)

COc1ccc(-c2ccc3c(N4CCOC[C@@H]4C)nc(N4CCOC[C@@H]4C)nc3n2)cc1CO [AZD8055]
Relative NAGS level vs Untreated (±Standard Deviation) (NAGS; 0.3 μM, primary human hepatocytes, triplicate (Table 21, FIG. 13)): 1.31 ± 0.20 | Relative NAGS level vs Untreated (±Standard Deviation) (NAGS; 1 μM, primary human hepatocytes, triplicate (Table 21, FIG. 13)): 1.41 ± 0.28 | Relative NAGS level vs Untreated (±Standard Deviation) (NAGS; [9]): 1.93 ± 0.02 | increase in NAGS gene expression (Tables 21, 22, FIG. 13, 14) (NAGS; Example 11, relative mRNA vs DMSO): greatest increase | Relative ASS1 level vs Untreated (±Standard Deviation) (ASS1; [10]): 1.44 ± 0.27 | Relative SLC25A15 level vs Untreated (±Standard Deviation) (SLC25A15; [11]): 1.33 ± 0.06 and 1.85 ± 0.26 | Relative SLC25A15 level vs Untreated (±Standard Deviation) (SLC25A15; [12]): 1.54 ± 0.12 and 1.68 ± 0.26 | Relative SLC25A13 level vs Untreated (±Standard Deviation) (SLC25A13; 3 μM): 1.33 ± 0.06 | Relative SLC25A13 level vs Untreated (±Standard Deviation) (SLC25A13; 10 μM): 1.54 ± 0.12 | Relative ARGI level vs Untreated (±Standard Deviation) (ARG1; [13]): 1.34 ± 0.24 | Relative ARGI level vs Untreated (±Standard Deviation) (ARG1; [14]): 1.42 ± 0.03 | Relative ARGI level vs Untreated (±Standard Deviation) (ARG1; 10 μM, primary human hepatocytes, triplicate (Table 17, FIG. 9)): 1.35 ± 0.08 | Relative CPS1 level vs Untreated (±Standard Deviation) (CPS1 [1]; 0.3 μM): 1.38 ± 0.27 | Relative CPS1 level vs Untreated (±Standard Deviation) (CPS1 [1]; 1 μM): 1.38 ± 0.67 | Relative CPS1 level vs Untreated (±Standard Deviation) (CPS1 [1]; 3 μM): 1.60 ± 0.07

COc1ccc(-c2ccc3c(N4CCOC[C@@H]4C)nc(N4CCOC[C@@H]4C)nc3n2)cc1CO [AZD-8055]
Relative NAGS level vs Untreated (±Standard Deviation) (NAGS; [9]): 1.43 ± 0.01 | Relative ASS1 level vs Untreated (±Standard Deviation) (ASS1; [10]): 1.66 ± 0.11 | Relative SLC25A15 level vs Untreated (±Standard Deviation) (SLC25A15; [11]): 1.3 ± 0.06 | Relative SLC25A15 level vs Untreated (±Standard Deviation) (SLC25A15; [12]): 1.64 ± 0.09 | Relative SLC25A13 level vs Untreated (±Standard Deviation) (SLC25A13; 3 μM): 1.35 ± 0.06 | Relative SLC25A13 level vs Untreated (±Standard Deviation) (SLC25A13; 10 μM): 1.64 ± 0.09 | Relative ARGI level vs Untreated (±Standard Deviation) (ARG1; 0.3 μM, primary human hepatocytes, triplicate (Table 17, FIG. 9)): 1.44 ± 0.09 | Relative ARGI level vs Untreated (±Standard Deviation) (ARG1; [13]): 1.43 ± 0.25 | Relative ARGI level vs Untreated (±Standard Deviation) (ARG1; [14]): 1.36 ± 0.07 | Relative CPS1 level vs Untreated (±Standard Deviation) (CPS1 [1]; 1 μM): 1.42 ± 0.24

CO[C@H]1/C=C\C=C(/C)C(=O)NC2=CC(=O)C(NCCN(C)C)=C(C[C@@H](C)C[C@H](OC)[C@H](O)[C@@H](C)/C=C(\C)[C@@H]1OC(N)=O)C2=O [Alvespimycin hydrochloride]
OTC Expression mRNA FC (OTC [2]; 0.3 uM): 1.94 | OTC Expression mRNA FC (OTC [2]; 3 uM): 1.03 | CPS1 Expression mRNA FC (CPS1 [3]; 0.3 uM): 1.41 | CPS1 Expression mRNA FC (CPS1 [3]; 3 uM): 1.54

CO[C@H]1/C=C\C=C(/C)C(=O)NC2=CC(=O)C(NCCN(C)C)=C(C[C@@H](C)C[C@H](OC)[C@H](O)[C@@H](C)/C=C(\C)[C@@H]1OC(N)=O)C2=O [Alvespimycin]
OTC Expression mRNA FC (OTC [2]; 0.3 uM): 3.03 | OTC Expression mRNA FC (OTC [2]; 3 uM): 1.57 | CPS1 Expression mRNA FC (CPS1 [3]; 0.3 uM): 2.33 | CPS1 Expression mRNA FC (CPS1 [3]; 3 uM): 1.94

CCNC(=O)Nc1ccc(-c2nc(N3CCOC[C@@H]3C)c3c(n2)C(C)(C)S(=O)(=O)C3)cc1 [CZ415]
Relative NAGS level vs Untreated (±Standard Deviation) (NAGS): 2.00 ± 0.27 | increase in NAGS gene expression (Tables 21, 22, FIG. 13, 14) (NAGS): greatest increase | Relative ASS1 level vs Untreated (±Standard Deviation) (ASS1; [10]): 1.65 ± 0.11 | Relative SLC25A15 level vs Untreated (±Standard Deviation) (SLC25A15): 1.61 ± 0.19 and 1.52 ± 0.17 | Relative SLC25A13 level vs Untreated (±Standard Deviation) (SLC25A13; 3 μM): 1.61 ± 0.19 | Relative SLC25A13 level vs Untreated (±Standard Deviation) (SLC25A13; 10 μM): 1.52 ± 0.17 | Relative ARGI level vs Untreated (±Standard Deviation) (ARG1; [14]): 1.35 ± 0.12 | Relative CPS1 level vs Untreated (±Standard Deviation) (CPS1 [1]; 1 μM): 1.32 ± 0.04

FC(F)(F)c1ccc(/C=C/c2nc(COc3ccc(CCCCn4ccnn4)cc3)co2)cc1 [Mubritinib (TAK 165), Mubritinib]
Relative ASS1 level vs Untreated (±Standard Deviation) (ASS1): 2.56 ± 0.11 and 2.23 ± 0.53 and 2.52 ± 0.15 and 1.66 ± 0.98 and 1.87 ± 0.24 and 2.14 ± 0.39 and 2.77 ± 0.69 | increase in ASS1 gene expression (Tables 15, 16, FIG. 7, 8) (ASS1): greatest increase | increase in OTC gene expression (Table 14, FIG. 6) (OTC [4]): significant increase | Increase in SLC25A15 gene expression (qualitative) (SLC25A15): greatest increase | Relative SLC25A13 level vs Untreated (±Standard Deviation) (SLC25A13; 0.3 μM): 1.34 ± 0.33 | Relative ARGI level vs Untreated (±Standard Deviation) (ARG1): 1.93 ± 0.05 and 1.86 ± 0.04 | increase in ARG1 gene expression (Tables 17, 18, FIG. 9, 10) (ARG1): greatest increase | increase in CPS1 gene expression (Tables 19, 20, FIG. 11, 12) (CPS1 [1]): greatest increase

CC1(C)CC(=O)c2c(C(F)(F)F)nn(-c3ccc(C(N)=O)c(N[C@H]4CC[C@H](OC(=O)CN)CC4)c3)c2C1 [PF-04929113]
OTC Expression mRNA FC (OTC [2]; 0.3 uM): 1.77 | OTC Expression mRNA FC (OTC [2]; 3 uM): 4.28 | CPS1 Expression mRNA FC (CPS1 [3]; 0.3 uM): 1.62 | CPS1 Expression mRNA FC (CPS1 [3]; 3 uM): 2.09 | Relative CPS1 level vs Untreated (±Standard Deviation) (CPS1 [1]; 3 μM): 1.38 ± 0.13

NS(=O)(=O)C#Cc1ccccc1 [Pifithrin-μ]
Fold change (Log 2) vs untreated, NAGS expression (NAGS; primary human hepatocytes, RNA-seq (Table 6)): 1.18 Log 2 | number of urea cycle genes whose expression was significantly up-regulated (urea cycle genes): three | Up-regulated Genes (urea cycle genes; urea cycle-related genes significantly increased (Table 10)): OTC, NAGS, ARG1 | OTC expression, Fold change (Log 2) vs untreated (OTC [4]; primary human hepatocytes, RNA-seq): 0.79 Log 2 | OTC Expression mRNA FC (OTC [2]; 0.3 uM): 1.20 | OTC Expression mRNA FC (OTC [2]; 3 uM): 1.29 | CPS1 Expression mRNA FC (CPS1 [3]; 0.3 uM): 0.98 | CPS1 Expression mRNA FC (CPS1 [3]; 3 uM): 1.05 | Fold change (Log 2) vs untreated, ARG1 expression (ARG1; primary human hepatocytes, RNA-seq (Table 7)): 1.87 Log 2

CC[C@@H]1CN(C(=O)NCC(F)(F)F)C[C@@H]1c1cnc2cnc3[nH]ccc3n12 [upadacitinib]
CPS1 mRNA FC (CPS1 [5]; 0.3 uM): 2.02 | CPS1 mRNA FC (CPS1 [5]; 3 uM): 1.39 | OTC mRNA FC (OTC [6]; 0.3 uM): 2.91 | OTC mRNA FC (OTC [6]; 3 uM): 2.75 | OTC mRNA FC, Donor A (OTC [7]; 0.1 uM): 1.36 | OTC mRNA FC, Donor B (OTC [7]; 0.1 uM): 1.56 | OTC mRNA FC, Donor A (OTC [7]; 0.3 uM): 1.99 | OTC mRNA FC, Donor B (OTC [7]; 0.3 uM): 2.06 | OTC mRNA FC, Donor A (OTC [7]; 1 uM): 3.17 | OTC mRNA FC, Donor B (OTC [7]; 1 uM): 3.54 | OTC mRNA FC, Donor A (OTC [7]; 3 uM): 4.81 | OTC mRNA FC, Donor B (OTC [7]; 3 uM): 4.66 | OTC mRNA FC, Donor A (OTC [7]; 10 uM): 6.77 | OTC mRNA FC, Donor B (OTC [7]; 10 uM): 9.39 | CPS1 mRNA FC, Donor A (CPS1 [8]; 0.1 uM): 1.26 | CPS1 mRNA FC, Donor B (CPS1 [8]; 0.1 uM): 3.74 | CPS1 mRNA FC, Donor A (CPS1 [8]; 0.3 uM): 1.58 | CPS1 mRNA FC, Donor B (CPS1 [8]; 0.3 uM): 2.54 | CPS1 mRNA FC, Donor A (CPS1 [8]; 1 uM): 2.70 | CPS1 mRNA FC, Donor B (CPS1 [8]; 1 uM): 2.38 | CPS1 mRNA FC, Donor A (CPS1 [8]; 3 uM): 3.15 | CPS1 mRNA FC, Donor B (CPS1 [8]; 3 uM): 1.43 | CPS1 mRNA FC, Donor A (CPS1 [8]; 10 uM): 4.25 | CPS1 mRNA FC, Donor B (CPS1 [8]; 10 uM): 1.21
